Bridge positions count the residues as written; N and C are the ends. Square brackets hold non-standard residues; d marks the D form. * marks the point of attachment. 2Nal = N[C@@H](Cc1ccc2ccccc2c1)C(=O)O; Benzoyl(4-F) = O=C(c1ccc(F)cc1)*; Cit = NC(=O)NCCC[C@H](N)C(=O)O
System: neutrophil migration to peripheral blood
Assay: In vivo neutrophil migration to peripheral blood after injection
Conditions: mice, single subcutaneous dose of 5 mg/kg BL-8040 in 200 μl PBS, bled 2 hours after injection, flow cytometry of mature neutrophils, increase relative to control mice
Experimental: In some of any of the respective embodiments, promotion of in vivo neutrophil migration to peripheral blood is determined by subcutaneously injecting mice with 5 mg/kg of BL-8040 (SEQ ID NO: 1), reconstituted in 200 μl of PBS, then bleeding the mice 2 hours after injection (e.g., by cardiac puncture into tubes with heparin) and quantifying the number of mature neutrophils in the peripheral blood (e.g., by flow cytometry) relative to control (untreated) mice.
BL-8040 (SEQ ID NO: 1) is an antagonist of the CXCR4 chemokine receptor. The induction of the cellular activity mediated by CXCR4 is responsible for the attachment of white blood cells to the bone marrow stromal cells. Inhibition of the CXCR4 activity (e.g., by BL-8040 (SEQ ID NO: 1)) is therefore expected to induce the detachment of the white blood cells (which include but are not limited to neutrophils) from the bone marrow stroma, and the subsequent migration of the cells to the peripheral blood. […]
Mice were subcutaneously injected with a single dose of 5 mg/kg of BL-8040 (SEQ ID NO: 1), reconstituted in 200 μl of PBS. […] Flow cytometry was used to evaluate the number of mature neutrophils in the peripheral blood, and the increase relative to control mice was calculated.

Reference Example 1: BL-8040 prepared on Rink amide resin with HOBt/TBTU coupling and iodine cyclization; lacks the RRT 0.87 and 0.72 compounds ({Benzoyl(4-F)}-RR[2Nal]CY[Cit]K[dK]PYR[Cit]CR-NH2; disulfide 4-13 (inferred))
Fold increase in neutrophil number: 5.6

Reference: US12268725B2, “Composition of BL-8040” (BioLineRx Ltd., priority 2020, dated 2025)
